Data on one molecule can be found in publication PMC11855355, “In-Situ Purification of Non-Ribosomal Peptide Synthetases Assembly Line for Structural and Biochemical Studies” (International Journal of Molecular Sciences, 2025).

For the assay, the target named is T1, PvdL (Pseudomonas putida, UniProt Q88F56).
T1 construct: monomer
The assay can be described thus: LC/HRMS of product N-myristoyl-L-glutamic acid after base hydrolysis. The format is biochemical. The conditions noted are these: 1 uM PvdL, 200 uM myristic acid, 1 mM L-Glu, 5 mM ATP, 10 mM MgCl2, pH 7.6, 25 °C; first two modules; product covalent on PvdL.

T1 sequence (Q88F56 1-4317): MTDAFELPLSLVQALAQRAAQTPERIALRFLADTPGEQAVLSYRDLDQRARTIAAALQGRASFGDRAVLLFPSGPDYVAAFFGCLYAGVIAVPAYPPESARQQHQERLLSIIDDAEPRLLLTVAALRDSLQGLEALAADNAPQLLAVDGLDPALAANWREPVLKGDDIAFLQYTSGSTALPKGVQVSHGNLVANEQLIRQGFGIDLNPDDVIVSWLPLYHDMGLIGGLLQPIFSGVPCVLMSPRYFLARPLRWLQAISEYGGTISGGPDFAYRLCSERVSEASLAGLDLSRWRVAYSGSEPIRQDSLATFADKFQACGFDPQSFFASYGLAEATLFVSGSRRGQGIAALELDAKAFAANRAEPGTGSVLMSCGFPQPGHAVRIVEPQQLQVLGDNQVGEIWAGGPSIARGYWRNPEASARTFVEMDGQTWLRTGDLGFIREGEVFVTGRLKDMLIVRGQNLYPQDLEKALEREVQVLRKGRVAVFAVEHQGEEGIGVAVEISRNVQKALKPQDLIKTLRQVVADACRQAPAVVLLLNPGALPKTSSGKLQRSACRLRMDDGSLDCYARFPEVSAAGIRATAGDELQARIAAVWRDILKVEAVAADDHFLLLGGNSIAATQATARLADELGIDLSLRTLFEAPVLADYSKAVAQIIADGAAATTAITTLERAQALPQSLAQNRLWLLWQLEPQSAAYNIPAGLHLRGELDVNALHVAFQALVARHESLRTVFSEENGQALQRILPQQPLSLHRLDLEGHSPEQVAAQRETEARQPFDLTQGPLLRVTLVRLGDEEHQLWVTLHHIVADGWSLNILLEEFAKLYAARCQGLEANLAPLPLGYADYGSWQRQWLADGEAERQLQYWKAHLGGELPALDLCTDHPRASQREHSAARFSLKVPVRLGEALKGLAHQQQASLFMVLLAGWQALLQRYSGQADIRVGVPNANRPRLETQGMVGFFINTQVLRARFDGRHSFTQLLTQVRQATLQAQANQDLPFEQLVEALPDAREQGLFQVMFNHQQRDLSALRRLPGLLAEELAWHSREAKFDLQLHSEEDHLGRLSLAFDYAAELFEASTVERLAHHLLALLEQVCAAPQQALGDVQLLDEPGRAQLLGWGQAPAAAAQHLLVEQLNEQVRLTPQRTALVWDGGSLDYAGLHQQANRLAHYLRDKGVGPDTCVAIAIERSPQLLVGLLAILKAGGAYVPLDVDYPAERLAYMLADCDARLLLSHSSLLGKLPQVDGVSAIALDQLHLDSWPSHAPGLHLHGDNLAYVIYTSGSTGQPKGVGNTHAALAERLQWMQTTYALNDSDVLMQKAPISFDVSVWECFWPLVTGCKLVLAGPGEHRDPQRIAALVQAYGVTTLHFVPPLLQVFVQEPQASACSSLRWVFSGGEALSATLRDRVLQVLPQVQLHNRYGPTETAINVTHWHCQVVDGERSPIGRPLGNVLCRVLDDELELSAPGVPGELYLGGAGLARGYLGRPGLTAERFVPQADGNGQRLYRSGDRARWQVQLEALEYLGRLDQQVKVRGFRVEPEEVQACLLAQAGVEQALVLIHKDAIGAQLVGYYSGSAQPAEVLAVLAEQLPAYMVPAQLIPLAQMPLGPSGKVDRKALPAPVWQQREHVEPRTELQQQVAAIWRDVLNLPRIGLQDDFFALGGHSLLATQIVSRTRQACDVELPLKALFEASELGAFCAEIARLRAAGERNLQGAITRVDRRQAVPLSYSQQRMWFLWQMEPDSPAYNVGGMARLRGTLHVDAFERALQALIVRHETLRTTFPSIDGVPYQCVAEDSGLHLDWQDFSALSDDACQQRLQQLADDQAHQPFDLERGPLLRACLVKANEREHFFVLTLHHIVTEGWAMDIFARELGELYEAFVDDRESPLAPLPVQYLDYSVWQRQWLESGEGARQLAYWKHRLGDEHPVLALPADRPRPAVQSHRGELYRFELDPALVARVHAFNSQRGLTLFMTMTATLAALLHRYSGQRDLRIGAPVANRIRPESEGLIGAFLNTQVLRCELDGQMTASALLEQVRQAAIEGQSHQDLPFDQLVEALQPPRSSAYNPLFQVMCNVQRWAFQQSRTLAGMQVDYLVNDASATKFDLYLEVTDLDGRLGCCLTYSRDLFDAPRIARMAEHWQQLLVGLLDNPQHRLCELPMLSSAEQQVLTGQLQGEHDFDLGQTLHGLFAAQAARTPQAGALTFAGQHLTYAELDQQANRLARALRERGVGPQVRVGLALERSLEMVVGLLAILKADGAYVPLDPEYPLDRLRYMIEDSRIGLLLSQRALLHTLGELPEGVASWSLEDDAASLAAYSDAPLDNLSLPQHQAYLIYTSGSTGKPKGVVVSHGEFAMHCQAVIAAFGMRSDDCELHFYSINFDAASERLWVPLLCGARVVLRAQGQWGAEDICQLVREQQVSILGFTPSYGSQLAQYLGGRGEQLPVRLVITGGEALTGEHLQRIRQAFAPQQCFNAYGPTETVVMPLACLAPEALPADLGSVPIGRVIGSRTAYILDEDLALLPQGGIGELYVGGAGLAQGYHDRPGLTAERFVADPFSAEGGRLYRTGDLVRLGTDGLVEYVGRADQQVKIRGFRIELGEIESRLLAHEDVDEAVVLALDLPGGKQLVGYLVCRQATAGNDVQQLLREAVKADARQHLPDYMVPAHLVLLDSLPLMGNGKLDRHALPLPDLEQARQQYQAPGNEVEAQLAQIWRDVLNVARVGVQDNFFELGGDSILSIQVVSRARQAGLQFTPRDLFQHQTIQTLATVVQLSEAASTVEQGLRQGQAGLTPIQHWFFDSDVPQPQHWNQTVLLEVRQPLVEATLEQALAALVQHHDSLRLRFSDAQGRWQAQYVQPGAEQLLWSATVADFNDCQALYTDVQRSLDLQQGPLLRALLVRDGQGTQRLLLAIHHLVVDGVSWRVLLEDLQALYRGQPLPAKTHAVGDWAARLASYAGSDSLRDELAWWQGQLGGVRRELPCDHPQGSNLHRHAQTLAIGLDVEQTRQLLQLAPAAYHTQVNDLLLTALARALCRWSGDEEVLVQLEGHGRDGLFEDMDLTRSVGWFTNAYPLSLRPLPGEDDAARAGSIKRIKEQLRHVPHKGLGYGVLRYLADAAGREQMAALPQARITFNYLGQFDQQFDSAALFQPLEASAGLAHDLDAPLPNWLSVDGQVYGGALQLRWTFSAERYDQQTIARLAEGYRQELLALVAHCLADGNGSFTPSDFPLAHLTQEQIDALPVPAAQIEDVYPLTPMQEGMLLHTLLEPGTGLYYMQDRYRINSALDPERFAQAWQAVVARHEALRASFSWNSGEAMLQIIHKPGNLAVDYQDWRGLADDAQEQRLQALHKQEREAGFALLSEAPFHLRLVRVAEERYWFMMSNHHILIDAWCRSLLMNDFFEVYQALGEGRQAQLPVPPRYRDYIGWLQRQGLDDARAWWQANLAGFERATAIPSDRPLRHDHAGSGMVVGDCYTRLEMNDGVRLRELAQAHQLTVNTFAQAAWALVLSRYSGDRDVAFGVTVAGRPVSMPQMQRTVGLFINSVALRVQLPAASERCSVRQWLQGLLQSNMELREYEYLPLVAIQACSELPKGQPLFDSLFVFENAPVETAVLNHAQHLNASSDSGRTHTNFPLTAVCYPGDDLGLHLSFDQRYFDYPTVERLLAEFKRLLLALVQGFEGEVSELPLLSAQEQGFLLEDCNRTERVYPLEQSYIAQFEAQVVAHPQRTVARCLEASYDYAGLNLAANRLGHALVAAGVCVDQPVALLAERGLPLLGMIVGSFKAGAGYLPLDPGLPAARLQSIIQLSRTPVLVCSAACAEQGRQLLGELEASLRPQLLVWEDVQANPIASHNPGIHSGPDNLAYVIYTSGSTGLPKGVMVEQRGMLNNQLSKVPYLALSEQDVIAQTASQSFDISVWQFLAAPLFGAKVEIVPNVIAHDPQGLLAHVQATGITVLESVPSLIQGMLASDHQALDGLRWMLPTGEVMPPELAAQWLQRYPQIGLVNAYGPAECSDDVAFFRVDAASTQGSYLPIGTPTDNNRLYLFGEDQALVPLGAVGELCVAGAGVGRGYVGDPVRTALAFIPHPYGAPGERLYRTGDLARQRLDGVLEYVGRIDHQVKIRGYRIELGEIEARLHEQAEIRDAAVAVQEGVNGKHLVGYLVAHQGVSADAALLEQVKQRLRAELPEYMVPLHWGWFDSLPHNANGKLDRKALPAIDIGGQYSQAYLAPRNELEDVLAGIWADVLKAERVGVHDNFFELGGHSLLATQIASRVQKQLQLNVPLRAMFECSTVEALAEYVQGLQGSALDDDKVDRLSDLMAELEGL

As for `N[C@@H](CCC(=O)O)C(=O)O` [L-Glu], the “LC/HRMS of product N-myristoyl-L-glutamic acid after base hydrolysis” value was “ATP-energy-dependent activation and condensation of myristic acid and glutamic acid”.
